This note sets out measurements from patent US9061980B2, “Organic compounds” (NABRIVA THERAPEUTICS, AG, priority 2007, dated 2015).

Assay type in all cases: cell-based
In test [1] the test system is Enterococcus faecalis ATCC29212 B4. The test can be described thus: MIC determination according to CLSI. The following applies: Enterococcus faecalis ATCC29212, strain B4. An excerpt:
(§1) For example, the compounds of the present invention show antimicrobial, e.g. antibacterial, activity against gram positive bacteria, such as coagulase-positive and coagulase-negative Staphylococci, e.g. Staphylococcus aureus, Styphylococcus epidermis, Staphylococcus haemolyticus, Streptococci, e.g. Streptococcus pyogenes, Streptococcus pneumoniae, Streptococcus agalacticae, Enterococci, e.g. Enterococcus faecium and Moraxellaceae, e.g. Moraxella catarrhalis, Pasteurellaceae, e.g. Haemophilus influenzae, as well as against Mycoplasmactaceae, Chlamydiaceae, e.g. Chlamydia trachomatis, Chlamydia pneumoniae and obligatory anaerobes, e.g. Bacteroides fragilis, Clostridium difficile; in vitro in the Agar Dilution Test or Microdilution Test according to the Clinical and Laboratory Standards Institute (CLSI, former National Committee for Clinical Laboratory Standards (NCCLS) 2006, Document M7-A7 Vol. 26, No. 2: “Methods for dilution Antimicrobial Susceptibility Tests for Bacteria that Grow Aerobically—Seventh Edition, Approved Standard”; and in the in vitro determination of the antibacterial activity against anaerobic bacteria according to National Committee for Clinical Laboratory Standards (NCCLS) VOL. 24, No. 2, M11-A5, Methods for Antimicrobal Susceptibility Testing of Anaerobic Bacteria; Approved Standard; Sixth Edition (2004) and in vivo in the septicaemic mouse model against Staphylococcus aureus.
(§2) The antibacterial activity expressed as minimal inhibitory concentration (MIC) was determined according to the approved standard reference recommendations of CLSI (former NCCLS).

Test [2] has as its system Enterococcus faecalis ATCC51299 B5. As to the kind of experiment: MIC determination according to CLSI. The following applies: Enterococcus faecalis ATCC51299, strain B5.
From the text: as §1, §2

Test [3] has as its system Escherichia coli ATCC25922 B1. As to the kind of experiment: MIC determination according to CLSI. The following applies: Escherichia coli ATCC25922, strain B1.
From the text: as §1, §2

Test [4] concerns Moraxella catarrhalis ATCC43618 B407. As to the kind of experiment: MIC determination according to CLSI. The following applies: Moraxella catarrhalis ATCC43618, strain B407.
From the text: as §1, §2

In test [5] the test system is Staphylococcus aureus (MSSA) ATCC10390 B6. As to the kind of experiment: MIC determination according to CLSI. The following applies: Staphylococcus aureus (MSSA) ATCC10390, strain B6.
From the text: as §1, §2

Test [6] has as its system Staphylococcus aureus (MSSA) ATCC29213 B7. The test can be described thus: MIC determination according to CLSI. The following applies: Staphylococcus aureus (MSSA) ATCC29213, strain B7.
From the text: as §1, §2

The test system of test [7] is Streptococcus pneumoniae ATCC49619 B11. The test can be described thus: MIC determination according to CLSI. The following applies: Streptococcus pneumoniae ATCC49619, strain B11.
From the text: as §1, §2

The subject of test [8] is Staphylococcus aureus, Enterococcus faecalis, Streptococcus pneumoniae, Moraxella catarrhalis and Escherichia coli. The test can be described thus: Antibacterial activity (MIC) against panel of clinical relevant bacterial pathogens. The following applies: for activity against the clinical relevant bacterial pathogens: in vitro, statement in words. The procedure:
as §2

SMILES strings stand for the structures. In brackets after ≈: the same amount, converted by molar mass. Where two headings read alike, the source gives them in different places.

One may read the MIC as the lowest concentration found to suppress growth. As to `C=C[C@]1(C)C[C@@H](OC(=O)CSc2cccc(F)c2)[C@]2(C)C(C)CCC3(CCC(=O)C32)[C@@H](C)[C@@H]1O` (stereo partly shown) [Example 1, 14-O-[(3-Fluoro-phenylsulfanyl)-acetyl]-mutilin], the MIC in test [1] (read-out: MIC) is 3.2 µg/mL (≈ 6.55 µM); in test [2] (read-out: MIC), above 25.6 µg/mL; in test [3] (read-out: MIC), above 25.6 µg/mL; in test [4] (read-out: MIC), at most 0.0125 µg/mL; in test [5] (read-out: MIC), at most 0.0125 µg/mL; in test [6] (read-out: MIC), at most 0.0125 µg/mL. Also, the MIC in test [7] (read-out: MIC) was 0.04 µg/mL (≈ 0.0819 µM). The “factor by which MICs are lower than the MICs of the comparator compounds” value in test [8] (against at least one of the strains shown in Table 1, comparators examples 3, 6, 9, 12, 14 and 17) is recorded as at least 2. The “activity against the clinical relevant bacterial pathogens” value (“activity” for short) in test [8] is listed as “very good activity”.
Turning to `C=C[C@]1(C)C[C@@H](OC(=O)CSc2ccccc2F)[C@]2(C)C(C)CCC3(CCC(=O)C32)[C@@H](C)[C@@H]1O` (stereo partly shown) [Example 3, 14-O-[(2-Fluoro-phenylsulfanyl)-acetyl]-mutilin], the MIC in test [1] (read-out: MIC) was above 25.6 µg/mL; in test [2] (read-out: MIC), above 25.6 µg/mL; in test [3] (read-out: MIC), above 25.6 µg/mL; in test [4] (read-out: MIC), 0.025 µg/mL (≈ 0.0512 µM); in test [5] (read-out: MIC), 0.05 µg/mL (≈ 0.102 µM); in test [6] (read-out: MIC), 0.05 µg/mL (≈ 0.102 µM). The MIC in test [7] (read-out: MIC) came to 0.16 µg/mL (≈ 0.327 µM).
Turning to `C=C[C@]1(C)C[C@@H](OC(=O)CSc2ccc(F)cc2F)[C@]2(C)C(C)CCC3(CCC(=O)C32)[C@@H](C)[C@@H]1O` (stereo partly shown) [Example 6, 14-O-[(2,4-Difluoro-phenylsulfanyl)-acetyl]-mutilin], the MIC in test [1] (read-out: MIC) is above 25.6 µg/mL; in test [2] (read-out: MIC), above 25.6 µg/mL; in test [3] (read-out: MIC) it was above 25.6 µg/mL; in test [4] (read-out: MIC) it was 0.05 µg/mL (≈ 0.0987 µM); in test [5] (read-out: MIC), 0.1 µg/mL (≈ 0.197 µM); in test [6] (read-out: MIC) it was 0.1 µg/mL (≈ 0.197 µM). In test [7] (read-out: MIC), the MIC turned out to be 0.32 µg/mL (≈ 0.632 µM).
Consider `C=C[C@]1(C)C[C@@H](OC(=O)CSc2cccc(O)c2)[C@]2(C)C(C)CCC3(CCC(=O)C32)[C@@H](C)[C@@H]1O` (stereo partly shown) [Example 7, 14-O-[(3-Hydroxy-phenylsulfanyl)-acetyl]-mutilin], for which the MIC in test [1] (read-out: MIC) was above 25.6 µg/mL; in test [2] (read-out: MIC), above 25.6 µg/mL; in test [3] (read-out: MIC), above 25.6 µg/mL; in test [4] (read-out: MIC), at most 0.0125 µg/mL; in test [5] (read-out: MIC), at most 0.0125 µg/mL; in test [6] (read-out: MIC) it was at most 0.0125 µg/mL. The MIC in test [7] (read-out: MIC) is 0.02 µg/mL (≈ 0.0411 µM). In addition, the “activity” value in test [8] is recorded as “very good activity”.
Turning to `C=C[C@]1(C)C[C@@H](OC(=O)CSc2ccccc2O)[C@]2(C)C(C)CCC3(CCC(=O)C32)[C@@H](C)[C@@H]1O` (stereo partly shown) [Example 9, 14-O-[(2-Hydroxy-phenylsulfanyl)-acetyl]-mutilin], the MIC in test [1] (read-out: MIC) is above 25.6 µg/mL; in test [2] (read-out: MIC), above 25.6 µg/mL; in test [3] (read-out: MIC) it was above 25.6 µg/mL; in test [4] (read-out: MIC) it was at most 0.0125 µg/mL; in test [5] (read-out: MIC), at most 0.0125 µg/mL; in test [6] (read-out: MIC), at most 0.0125 µg/mL. In test [7] (read-out: MIC), the MIC was 0.16 µg/mL (≈ 0.329 µM).
As for `C=C[C@]1(C)C[C@@H](OC(=O)CSc2cccc(OC)c2)[C@]2(C)C(C)CCC3(CCC(=O)C32)[C@@H](C)[C@@H]1O` (stereo partly shown) [Example 10, 14-O-[(3-Methoxy-phenylsulfanyl)-acetyl]-mutilin], the MIC in test [1] (read-out: MIC) is above 25.6 µg/mL; in test [2] (read-out: MIC) it was above 25.6 µg/mL; in test [3] (read-out: MIC), above 25.6 µg/mL; in test [4] (read-out: MIC), at most 0.0125 µg/mL; in test [5] (read-out: MIC), 0.025 µg/mL (≈ 0.0499 µM); in test [6] (read-out: MIC) it was 0.025 µg/mL (≈ 0.0499 µM). Further, the MIC in test [7] (read-out: MIC) was 0.04 µg/mL (≈ 0.0799 µM). In addition, in test [8], the “activity” value is “very good activity”.
Consider `C=C[C@]1(C)C[C@@H](OC(=O)CSc2ccccc2OC)[C@]2(C)C(C)CCC3(CCC(=O)C32)[C@@H](C)[C@@H]1O` (stereo partly shown) [Example 12, 14-O-[(2-Methoxy-phenylsulfanyl)-acetyl]mutilin], for which the MIC in test [1] (read-out: MIC) was above 25.6 µg/mL; in test [2] (read-out: MIC), above 25.6 µg/mL; in test [3] (read-out: MIC), above 25.6 µg/mL; in test [4] (read-out: MIC), 0.1 µg/mL (≈ 0.2 µM); in test [5] (read-out: MIC) it was 0.2 µg/mL (≈ 0.399 µM); in test [6] (read-out: MIC), 0.2 µg/mL (≈ 0.399 µM). Also, the MIC in test [7] (read-out: MIC) was 0.16 µg/mL (≈ 0.32 µM).
As for `C=C[C@]1(C)C[C@@H](OC(=O)CSc2cccc(C)c2)[C@]2(C)C(C)CCC3(CCC(=O)C32)[C@@H](C)[C@@H]1O` (stereo partly shown) [Example 14, 14-O-[(3-Methyl-phenylsulfanyl)-acetyl]-mutilin], the MIC is above 6.4 µg/mL in test [1] (read-out: MIC); above 6.4 µg/mL in test [2] (read-out: MIC); above 6.4 µg/mL in test [3] (read-out: MIC); 0.0125 µg/mL (≈ 0.0258 µM) in test [4] (read-out: MIC); 0.025 µg/mL (≈ 0.0516 µM) in test [5] (read-out: MIC); 0.05 µg/mL (≈ 0.103 µM) in test [6] (read-out: MIC). Moreover, in test [7] (read-out: MIC), the MIC was found to be 0.16 µg/mL (≈ 0.33 µM).
Consider `C=C[C@]1(C)C[C@@H](OC(=O)COc2cccc(O)c2)[C@]2(C)C(C)CCC3(CCC(=O)C32)[C@@H](C)[C@@H]1O` (stereo partly shown) [Example 15, 14-O-[(3-Hydroxy-phenoxy)-acetyl]-mutilin], for which the MIC was 12.8 µg/mL (≈ 27.2 µM) in test [1] (read-out: MIC); 25.6 µg/mL (≈ 54.4 µM) in test [2] (read-out: MIC); above 25.6 µg/mL in test [3] (read-out: MIC); at most 0.0125 µg/mL in test [4] (read-out: MIC); 0.025 µg/mL (≈ 0.0531 µM) in test [5] (read-out: MIC); 0.025 µg/mL (≈ 0.0531 µM) in test [6] (read-out: MIC). Moreover, the MIC in test [7] (read-out: MIC) was found to be 0.04 µg/mL (≈ 0.085 µM). For the same molecule, in test [8], the “activity” value is listed as “very good activity”.
Take `C=C[C@]1(C)C[C@@H](OC(=O)COc2ccccc2O)[C@]2(C)C(C)CCC3(CCC(=O)C32)[C@@H](C)[C@@H]1O` (stereo partly shown) [Example 17, 14-O-[(2-Hydroxy-phenoxy)-acetyl]-mutilin]: the MIC in test [1] (read-out: MIC) is above 6.4 µg/mL; in test [2] (read-out: MIC), above 6.4 µg/mL; in test [3] (read-out: MIC), above 6.4 µg/mL; in test [4] (read-out: MIC) it was 0.0125 µg/mL (≈ 0.0266 µM); in test [5] (read-out: MIC), 0.05 µg/mL (≈ 0.106 µM); in test [6] (read-out: MIC), 0.05 µg/mL (≈ 0.106 µM). The MIC in test [7] (read-out: MIC) is 0.16 µg/mL (≈ 0.34 µM).
On to `C=C[C@]1(C)C[C@@H](OC(=O)COc2cccc(C)c2)[C@]2(C)[C@H](C)CC[C@]3(CCC(=O)[C@H]32)[C@@H](C)[C@@H]1O` [Example 19, 14-O-[(3-Methyl-phenoxy)-acetyl]-mutilin], for which the MIC is above 6.4 µg/mL in test [1]; above 6.4 µg/mL in test [2]; above 6.4 µg/mL in test [3]; 0.0125 µg/mL (≈ 0.0267 µM) in test [4]; 0.05 µg/mL (≈ 0.107 µM) in test [5]; 0.05 µg/mL (≈ 0.107 µM) in test [6]. In addition, the MIC in test [7] was 0.64 µg/mL (≈ 1.37 µM).
